This is an account of results in patent publication EP4800012A1, “COMPOUND ACTING AS PARP7 INHIBITOR” (Dovetree Medicines Unus, Inc., priority 2023, dated 2025).

For experiment [1], the target named is T1, PARP7 (Homo sapiens, UniProt Q7Z3E1).
T1 construct: purchased BPS 80527
T1 sequence (Q7Z3E1 1-657): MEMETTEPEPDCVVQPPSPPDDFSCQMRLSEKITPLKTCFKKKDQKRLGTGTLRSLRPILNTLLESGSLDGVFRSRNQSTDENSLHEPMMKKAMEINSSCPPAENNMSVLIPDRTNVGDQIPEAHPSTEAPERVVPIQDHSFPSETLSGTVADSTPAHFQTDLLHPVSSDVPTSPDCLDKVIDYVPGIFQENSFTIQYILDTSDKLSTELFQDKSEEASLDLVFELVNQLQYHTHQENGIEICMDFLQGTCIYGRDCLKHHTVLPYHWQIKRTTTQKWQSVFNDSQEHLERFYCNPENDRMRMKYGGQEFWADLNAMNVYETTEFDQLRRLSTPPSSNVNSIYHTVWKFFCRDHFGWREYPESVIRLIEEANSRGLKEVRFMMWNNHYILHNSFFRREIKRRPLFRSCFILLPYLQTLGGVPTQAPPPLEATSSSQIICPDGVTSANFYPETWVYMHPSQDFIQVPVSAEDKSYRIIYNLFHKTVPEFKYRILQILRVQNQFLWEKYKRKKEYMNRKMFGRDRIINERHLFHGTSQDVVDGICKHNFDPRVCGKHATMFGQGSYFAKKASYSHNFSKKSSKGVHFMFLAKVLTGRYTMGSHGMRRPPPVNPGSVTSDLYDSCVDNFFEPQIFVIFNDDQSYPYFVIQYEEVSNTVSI
Kind of experiment: PARP7 in vitro enzyme activity inhibition (chemiluminescence assay, selectivity test). The settings on record: 6.25 nM of PARP7 solution, method of test example 1; read-out: PARP7 activity inhibition IC50. The format is biochemical. On the procedure:
(§1) Following the method in test example 1, the IC50 value of the inhibition of each compound on PARP7 activity were detected and obtained. Reference was made to the method in test example 1, except that the 6.25 nM of PARP7 solution in the ribosylation reaction step was replaced with a 5 nM of PARP1 solution or a 5 nM of PARP2. Similar to the 6.25 nM of PARP7 solution, the 5 nM of PARP1 solution and 5 nM of PARP2 solution were also formulated and obtained by using 1× Assay buffer.

The target of experiment [2] is PARP1 (Homo sapiens, UniProt P09874). Kind of experiment: PARP1 in vitro enzyme activity inhibition (chemiluminescence assay). The format is biochemical. As to conditions: 5 nM of PARP1 solution, method of test example 1; read-out: PARP1 activity inhibition IC50. On the procedure:
as §1

Experiment [3] deals with NCI-H1373 cells. Briefly: Inhibition on NCI-H1373 cell proliferation (Cell-Titer-Glo). The format is cell-based. The settings on record: Homo sapiens, 144 h; NCI-H1373 cells, incubation for 6 days, Cell-Titer-Glo; read-out: NCI-H1373 cell proliferation inhibition IC50.
In experiment [4] the target is PARP2 (Homo sapiens, UniProt Q9UGN5). Briefly: PARP2 in vitro enzyme activity inhibition (chemiluminescence assay). The format is biochemical. The settings on record: 5 nM of PARP2, method of test example 1; read-out: PARP2 activity inhibition IC50. The method, then:
as §1

The target in experiment [5] is T1, PARP7. Kind of experiment: Inhibition of the compound on PARP7 protein activity (ADP-ribosylation, chemiluminescence). The settings on record: Histone H1 coated plate, Biotin-Labeled NAD+, 2 h at room temperature, chemiluminescence; read-out: PARP7 activity inhibition IC50. It is filed as biochemical.
Experiment [6] has as its target T1, PARP7. Kind of experiment: PARP7 TR-FRET binding inhibition (displacement of probe RBN011147). As to conditions: TR-FRET, Biotin-labeled probe RBN011147; read-out: PARP7 binding inhibition IC50. On the procedure: The ability of the compound to substitute the probe RBN011147 (Wigle et al., 2020, Cell Chemical Biology 27, 877-887) was tested by a TR-FRET method, and IC50 was calculated to evaluate the binding ability of the compound to PARP7. […]
Background: TR-FRET usually uses a lanthanide donor and a delayed reading to cut background.

PARP1, sequence (P09874 whole entry, species assumed): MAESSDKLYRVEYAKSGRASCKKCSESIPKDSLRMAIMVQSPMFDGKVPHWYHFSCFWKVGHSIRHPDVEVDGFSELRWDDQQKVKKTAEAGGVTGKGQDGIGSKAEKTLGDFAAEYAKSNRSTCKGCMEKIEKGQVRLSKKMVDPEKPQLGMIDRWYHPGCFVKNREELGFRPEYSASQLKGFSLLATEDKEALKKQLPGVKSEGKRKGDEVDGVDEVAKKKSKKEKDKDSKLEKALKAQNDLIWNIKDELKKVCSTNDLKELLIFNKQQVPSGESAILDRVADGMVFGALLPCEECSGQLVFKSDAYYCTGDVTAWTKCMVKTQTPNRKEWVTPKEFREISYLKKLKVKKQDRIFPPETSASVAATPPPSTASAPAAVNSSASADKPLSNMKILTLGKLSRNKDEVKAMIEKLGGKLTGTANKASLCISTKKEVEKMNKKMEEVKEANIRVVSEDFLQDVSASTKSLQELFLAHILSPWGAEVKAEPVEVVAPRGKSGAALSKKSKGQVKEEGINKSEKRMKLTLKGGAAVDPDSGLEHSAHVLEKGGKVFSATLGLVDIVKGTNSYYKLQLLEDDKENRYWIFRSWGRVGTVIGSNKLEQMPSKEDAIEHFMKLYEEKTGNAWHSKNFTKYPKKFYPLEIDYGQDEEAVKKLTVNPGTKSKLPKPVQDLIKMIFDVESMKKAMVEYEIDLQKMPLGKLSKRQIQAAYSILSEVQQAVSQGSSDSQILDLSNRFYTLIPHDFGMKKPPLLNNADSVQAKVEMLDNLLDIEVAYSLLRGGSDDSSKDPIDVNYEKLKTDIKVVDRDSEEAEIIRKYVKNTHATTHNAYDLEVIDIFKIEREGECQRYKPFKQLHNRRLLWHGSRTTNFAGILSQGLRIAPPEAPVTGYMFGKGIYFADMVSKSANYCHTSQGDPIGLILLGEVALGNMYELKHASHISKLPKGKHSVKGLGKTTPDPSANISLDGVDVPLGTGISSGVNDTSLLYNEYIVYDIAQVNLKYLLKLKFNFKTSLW
PARP2, sequence (Q9UGN5 whole entry, species assumed): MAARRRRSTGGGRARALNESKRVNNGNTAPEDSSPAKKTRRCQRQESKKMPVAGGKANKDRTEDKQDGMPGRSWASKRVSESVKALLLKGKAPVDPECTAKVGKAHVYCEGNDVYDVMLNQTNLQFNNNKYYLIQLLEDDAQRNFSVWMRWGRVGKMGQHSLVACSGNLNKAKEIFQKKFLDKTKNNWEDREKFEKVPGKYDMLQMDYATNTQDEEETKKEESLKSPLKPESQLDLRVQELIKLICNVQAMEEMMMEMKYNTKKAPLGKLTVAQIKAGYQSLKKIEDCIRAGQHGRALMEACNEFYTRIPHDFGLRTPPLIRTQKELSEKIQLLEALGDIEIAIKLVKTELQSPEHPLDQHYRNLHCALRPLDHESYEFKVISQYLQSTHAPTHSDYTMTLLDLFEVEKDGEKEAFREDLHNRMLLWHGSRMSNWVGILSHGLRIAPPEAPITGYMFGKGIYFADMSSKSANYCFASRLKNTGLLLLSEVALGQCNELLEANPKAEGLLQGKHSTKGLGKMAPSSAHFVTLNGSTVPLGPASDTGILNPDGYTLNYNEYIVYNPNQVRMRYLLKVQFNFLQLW

Consider `N#CC1CCN(C(=O)[C@@H](CCCNC(=O)c2ccc(-c3ncc(C(F)(F)F)s3)cc2)Nc2cn[nH]c(=O)c2C(F)(F)F)CC1` [Example 243], for which the IC50 is less than 3 nM in experiment [1]; 3 to 10 nM in experiment [2]; greater than 3000 nM in experiment [3]; 3 to 10 nM in experiment [4]; less than 3 nM in experiment [5]; less than 10 nM in experiment [6].

In the case of `CN(C(=O)[C@@H](CCCNC(=O)c1ccc(-c2ncc(C(F)(F)F)s2)cc1)Nc1cn[nH]c(=O)c1C(F)(F)F)C1CCC1` [Example 230], the IC50 is 3 to 10 nM in experiment [1]; 30 to 100 nM in experiment [2]; less than 300 nM in experiment [3]; 3 to 10 nM in experiment [4]; 3 to 10 nM in experiment [5]; 30 to 100 nM in experiment [6].

As for `C[C@@H]1COCCN1C(=O)[C@@H](CCCNC(=O)c1ccc(-c2ncc(C(F)(F)F)s2)cc1)Nc1cn[nH]c(=O)c1C(F)(F)F` [Example 238], the IC50 in experiment [1] is less than 3 nM; in experiment [2] it was 30 to 100 nM; in experiment [3], 300 to 1000 nM; in experiment [4], 10 to 30 nM; in experiment [5] it was less than 3 nM; in experiment [6], less than 10 nM.

As for `CO[C@H]1CCN(C(=O)[C@@H](CCCNC(=O)c2ccc(-c3ncc(C(F)(F)F)s3)cc2)Nc2cn[nH]c(=O)c2C(F)(F)F)C1` [Example 237], the IC50 in experiment [1] was less than 3 nM; in experiment [2] it was 10 to 30 nM; in experiment [3], 300 to 1000 nM; in experiment [4] it was 3 to 10 nM; in experiment [5], less than 3 nM; in experiment [6], less than 10 nM.

With `O=C(NCCCC(Nc1cn[nH]c(=O)c1C(F)(F)F)C(=O)N1CCOCC1)c1ccc(-c2ncc(C(F)(F)F)s2)cc1` (stereo not drawn) [Example 88], the IC50 in experiment [1] was less than 3 nM; in experiment [2], 30 to 100 nM; in experiment [3], 300 to 1000 nM; in experiment [4], 3 to 10 nM; in experiment [5] it was less than 3 nM; in experiment [6], less than 10 nM.

On to `CC1(F)CN(C(=O)[C@@H](CCCNC(=O)c2ccc(-c3ncc(C(F)(F)F)s3)cc2)Nc2cn[nH]c(=O)c2C(F)(F)F)C1` [Example 242], for which the IC50 in experiment [1] was in the range of 3 to 10 nM; in experiment [2] it was 30 to 100 nM; in experiment [3] it was 1000 to 3000 nM; in experiment [4], 3 to 10 nM; in experiment [5] it was 3 to 10 nM; in experiment [6], 10 to 30 nM.

Consider `N#C[C@@H]1CCN(C(=O)[C@@H](CCCNC(=O)c2ccc(-c3ncc(C(F)(F)F)s3)cc2)Nc2cn[nH]c(=O)c2C(F)(F)F)C1` [Example 239], for which the IC50 in experiment [1] was less than 3 nM; in experiment [2], 10 to 30 nM; in experiment [3] it was 300 to 1000 nM; in experiment [4], greater than 100 nM; in experiment [5], less than 3 nM; in experiment [6], 10 to 30 nM.

With `O=C(NCCC[C@@H](Nc1cn[nH]c(=O)c1C(F)(F)F)C(=O)NC1CCC1)c1ccc(-c2ncc(C(F)(F)F)s2)cc1` [Example 228], the IC50 in experiment [1] is 3 to 10 nM; in experiment [2] it was greater than 100 nM; in experiment [3], less than 300 nM; in experiment [4] it was 3 to 10 nM; in experiment [5], 3 to 10 nM; in experiment [6], less than 10 nM.

`O=C(NCCC[C@@H](Nc1cn[nH]c(=O)c1C(F)(F)F)C(=O)N1CC[C@@H](F)C1)c1ccc(-c2ncc(C(F)(F)F)s2)cc1` [Example 222]: the IC50 was less than 3 nM in experiment [1]; 10 to 30 nM in experiment [2]; less than 300 nM in experiment [3]; less than 3 nM in experiment [4]; less than 3 nM in experiment [5]; less than 10 nM in experiment [6].

For the molecule `O=C(CCc1c[nH]c(=O)c(C(F)(F)F)c1N1CC2(CCC2)C1)Nc1ccc(-c2ncc(C(F)(F)F)s2)cn1` [Example 69], the IC50 in experiment [1] was less than 3 nM; in experiment [2], greater than 100 nM; in experiment [3], greater than 3000 nM; in experiment [4] it was greater than 100 nM; in experiment [5], less than 3 nM; in experiment [6] it was less than 10 nM.

Take `COC1(C)CN(C(=O)[C@@H](CCCNC(=O)c2ccc(-c3ncc(C(F)(F)F)s3)cc2)Nc2cn[nH]c(=O)c2C(F)(F)F)C1` [Example 246]: the IC50 in experiment [1] was less than 3 nM; in experiment [2], 10 to 30 nM; in experiment [3], 1000 to 3000 nM; in experiment [4], 3 to 10 nM; in experiment [5], less than 3 nM; in experiment [6], less than 10 nM.

Regarding `CC(CCCNC(=O)c1ccc(-c2ncc(C(F)(F)F)s2)cc1)Nc1cn[nH]c(=O)c1C(F)(F)F` (stereo not drawn) [Example 17], the IC50 was less than 3 nM in experiment [1]; 10 to 30 nM in experiment [2]; less than 300 nM in experiment [3]; less than 3 nM in experiment [4]; less than 3 nM in experiment [5]; less than 10 nM in experiment [6].

For `O=C(NCCCC(Nc1cn[nH]c(=O)c1C(F)(F)F)C(=O)N1CCCC1)c1ccc(-c2ncc(C(F)(F)F)cn2)cc1` (stereo not drawn) [Example 84], the IC50 in experiment [1] was less than 3 nM; in experiment [2], greater than 100 nM; in experiment [3], 300 to 1000 nM; in experiment [4], 10 to 30 nM; in experiment [5], less than 3 nM; in experiment [6], 10 to 30 nM.

For the molecule `O=C(NCCCC(Nc1cn[nH]c(=O)c1C(F)(F)F)C(=O)N1CCOCC1)c1cnc(-c2ncc(C(F)(F)F)cn2)cn1` (stereo not drawn) [Example 90], the IC50 in experiment [1] is less than 3 nM; in experiment [2], 30 to 100 nM; in experiment [3], greater than 3000 nM; in experiment [4], 30 to 100 nM; in experiment [5], less than 3 nM; in experiment [6], 30 to 100 nM.

For the molecule `O=C(NCCCC(Nc1cn[nH]c(=O)c1C(F)(F)F)C(=O)N1CCCC1)c1cnc(-c2ncc(C(F)(F)F)cn2)cn1` (stereo not drawn) [Example 89], the IC50 in experiment [1] is less than 3 nM; in experiment [2] it was 30 to 100 nM; in experiment [3] it was 300 to 1000 nM; in experiment [4], 10 to 30 nM; in experiment [5] it was less than 3 nM; in experiment [6], less than 10 nM.

For the molecule `CC(CCCNC(=O)c1cnc(-c2ncc(C(F)(F)F)cn2)cn1)Nc1cn[nH]c(=O)c1C(F)(F)F` (stereo not drawn) [Example 4], the IC50 in experiment [1] is less than 3 nM; in experiment [2], 30 to 100 nM; in experiment [3], 300 to 1000 nM; in experiment [4] it was 3 to 10 nM; in experiment [5] it was less than 3 nM; in experiment [6], less than 10 nM.

Take `CC(C)(C)NC(=O)[C@@H](CCCNC(=O)c1ccc(-c2ncc(C(F)(F)F)s2)cc1)Nc1cn[nH]c(=O)c1C(F)(F)F` [Example 221]: the IC50 is less than 3 nM in experiment [1]; greater than 100 nM in experiment [2]; less than 300 nM in experiment [3]; 3 to 10 nM in experiment [4]; less than 3 nM in experiment [5]; less than 10 nM in experiment [6].

In the case of `O=C(NCCc1n[nH]c(=O)c(C(F)(F)F)c1N1CC2(CCC2)C1)c1cnc(-c2ncc(C(F)(F)F)cn2)cn1` [Example 166], the IC50 is 3 to 10 nM in experiment [1]; greater than 100 nM in experiment [2]; greater than 3000 nM in experiment [3]; greater than 100 nM in experiment [4]; 3 to 10 nM in experiment [5]; greater than 100 nM in experiment [6].

For the molecule `CN(C(=O)[C@@H](CCCNC(=O)c1ccc(-c2ncc(C(F)(F)F)s2)cc1)Nc1cn[nH]c(=O)c1C(F)(F)F)C1CC1` [Example 223], the IC50 is 3 to 10 nM in experiment [1]; 3 to 10 nM in experiment [2]; less than 300 nM in experiment [3]; 30 to 100 nM in experiment [4]; 3 to 10 nM in experiment [5]; less than 10 nM in experiment [6].

With `O=C(NCCCC(Nc1cn[nH]c(=O)c1C(F)(F)F)C(=O)N1CCCC1)c1ccc(-c2ncc(C(F)(F)F)s2)cc1` (stereo not drawn) [Example 86], the IC50 in experiment [1] was less than 3 nM; in experiment [2], 10 to 30 nM; in experiment [3] it was less than 300 nM; in experiment [4], 3 to 10 nM; in experiment [5], less than 3 nM; in experiment [6], less than 10 nM.
